These results are taken from patent publication US20160022751A1, “NOVEL COMPOSITION FOR TREATING ALZHEIMER'S DISEASE AND IMPROVING COGNITIVE FUNCTION OF ALZHEIMER'S PATIENTS” (GANGNEUNG-WONJU NATIONAL UNIVERSITY INDUSTRY ACADEMY …, priority 2014, published 2016).

Assay [1] relates to caveolin1. As to the kind of experiment: Caveolin1 mRNA expression in HMO6 human microglial cells (qPCR). It is filed as cell-based. The settings on record: Aβ42 (5 μM) and/or Rg3 (2.5 or 5 μg/ml), 24 h (FIG. 15A-B). Here is the method: FIG. 15 is a graph showing a change in the expression of caveolin-1, caveolin-2, clathrin, neprilysin (NEP), insulin-degrading enzyme (IDE) according to treating Aβ and/or ginsenoside Rg3 to HMO6 human microglial cells. HMO6 cells were plated on 35 mm cell culture plates or chamber slides and Aβ42 (5 μM) and/or Rg3 (2.5 or 5 μg/ml) were treated for 24 h. Then, the mRNA expression was determined by quantitative RT-PCR. The expression of caveolin (A-B), clathrin (C) which are endocytosis-related genes and NEP (D) and IDE (E) which are genes encoding Aβ-degrading enzymes were compared depending on the presence or absence of Rg3/Aβ42. The results are shown as mean±SD. * P<0.05, ** P<0.01, *** P<0.001. […]
Total RNA extracts from HMO6 cells or perfused brain tissue were prepared using the Trizol method (Invitrogen). cDNA was synthesized from RNA by reverse transcription of 1 μg total RNA using the Improm-II reverse transcription system (Promega, Wis., USA) and oligo dT primers in a total volume of 20 μl. […] Relative sample expression levels were calculated using Rotor-Gene 6000 Series Software 1.7 and were expressed relative to β-actin for mice or glyceraldehyde 3-phosphate dehydrogenase for HMO6 cells and corrected for between-run variability. Data for the experimental samples are expressed as a percentage of the internal control gene. […]
In general terms: In qPCR the cycle at which signal appears reflects the starting amount.

In assay [2] the test system is HMO6 cells. As to the kind of experiment: Uptake of FITC-labeled Aβ42 in HMO6 cells (live-cell imaging). It is filed as cell-based, human. The settings on record: HMO6 cells pre-treated with Rg3 5 μg/ml for 20 h, after 30 min, persisted for 6 h (FIG. 21). On the procedure: The stably transfected HM06.hSRA cells prepared in Example 5-5 were plated into 96-well plates at 5000 cells/well to analyze Aβ uptake. […] […] Fluorescence intensities represented the number of cells (count/mm^2) over the time to quantify cells with FITC-labeled Aβ42 peptides. Aβ42 uptake was calculated using the following equation (FIG. 21):

For the molecule `CC(C)=CCC[C@](C)(O)[C@H]1CC[C@]2(C)[C@@H]1[C@H](O)C[C@@H]1[C@@]3(C)CC[C@H](O[C@@H]4O[C@H](CO)[C@@H](O)[C@H](O)[C@H]4O[C@@H]4O[C@H](CO)[C@@H](O)[C@H](O)[C@H]4O)C(C)(C)[C@@H]3CC[C@]12C` [ginsenoside Rg3], the “caveolin1-mediated Aβ42 endocytosis (caveolin mRNA)” value in assay [1] was “promoted Aβ42 uptake into HMO6 cells via a caveolin1 and clathrin-mediated endocytic mechanism”. Moreover, in assay [2], the Aβ42 uptake result is reported as “increased Aβ42 uptake significantly”.
